Each block holds one compound with its values, some of them ahead of it.
How the values were obtained:
[1] = system: CAMA-1; assay: OncoPanel cell proliferation assay, CAMA-1; settings: for Cell Count Activity Area: CAMA-1; for EC50: CAMA-1, read-out: Cell Count EC50; for IC50: CAMA-1, read-out: Cell Count IC50
Protocol: (§5) Cells were seeded into 384-well plates and incubated in a humidified atmosphere of 5% CO2 at 37° C. Compounds were added the day following cell seeding. At the same time, a time zero untreated cell plate was generated. After a 3-day incubation period, cells were fixed and stained to allow fluorescence imaging of nuclei. Compounds (1 mM stock solutions) were serially diluted in half-log steps from the highest test concentration (1 micromol), and assayed over 10 concentrations with a maximum assay concentration of 0.1% DMSO. Automated fluorescence microscopy was carried out using a Molecular Devices ImageXpress Micro XL high-content imager, and images were collected with a 4× objective. 16-bit TIFF images were acquired and analyzed with MetaXpress 5.1.0.41 software.

[2] = system: SNU-C2B; assay: OncoPanel cell proliferation assay, SNU-C2B; type: cell-based, human; settings: for EC50: read-out: Cell Count EC50; for GI50: read-out: Cell Count GI50
Protocol: (§1) Cells were grown in RPMI 1640, 10% FBS, 2 mM L-alanyl-L-glutamine, 1 mM Na pyruvate, or a special medium. Cells were seeded into 384-well plates and incubated in a humidified atmosphere of 5% CO2 at 37° C. Compounds were added the day following cell seeding. At the same time, a time zero untreated cell plate was generated. After a 3-day incubation period, cells were fixed and stained to allow fluorescence imaging of nuclei. Compounds (1 mM stock solutions) were serially diluted in half-log steps from the highest test concentration ([…]), and assayed over 10 concentrations with a maximum assay concentration of 0.1% DMSO. Automated fluorescence microscopy was carried out using a Molecular Devices ImageXpress Micro XL high-content imager, and images were collected with a 4× objective. 16-bit TIFF images were acquired and analyzed with MetaXpress 5.1.0.41 software.
(§2) Cell proliferation was measured by the fluorescence intensity of an incorporated nuclear dye. The output is referred to as the relative cell count, where the measured nuclear intensity is transformed to percent of control (POC) using the following formula: […]
(§3) Cellular response parameters were calculated using nonlinear regression to a sigmoidal single-site dose response model:
(§4) EC50 is the test compound concentration at the curve inflection point or half the effective response (parameter C of the fitted curve solution). GI50 is the concentration needed to reduce the observed growth by half (midway between the curve maximum and the time zero value). “Cell Count Activity Area” is an estimate of the integrated area above the curve (Barretina, et al. The Cancer Cell Line Encyclopedia enables predictive modelling of anticancer drug sensitivity. Nature 483: 603-607). […] In rare instances, values <0 or >10 may be observed. […] Curve-fitting, calculations, and report generation was performed using a custom data reduction engine and MathIQ based software (AIM).

[3] = system: Hs 729; assay: OncoPanel cell proliferation assay, Hs 729; type: cell-based, human; settings: for GI50: read-out: Cell Count GI50; for IC50: read-out: Cell Count IC50
Protocol: as §1, §2, §3, §4

[4] = system: SK-NEP-1; assay: OncoPanel cell proliferation assay, SK-NEP-1; settings: for EC50: SK-NEP-1, read-out: Cell Count EC50; for GI50: SK-NEP-1, read-out: Cell Count GI50; for Cell Count Activity Area: SK-NEP-1
Protocol: as §5

[5] = system: U-138MG; assay: OncoPanel cell proliferation assay, U-138MG; type: cell-based, human; settings: U-138MG; for EC50: read-out: Cell Count EC50; for GI50: read-out: Cell Count GI50
Protocol: as §1, §2, §3, §4

[6] = system: SW579; assay: OncoPanel cell proliferation assay, SW579; type: cell-based, human; settings: for EC50: read-out: Cell Count EC50; for GI50: read-out: Cell Count GI50
Protocol: as §1, §2, §3, §4

[7] = system: CHP-212; assay: OncoPanel cell proliferation assay, CHP-212; settings: for Cell Count Activity Area: CHP-212; for GI50: CHP-212, read-out: Cell Count GI50; for IC50: CHP-212, read-out: Cell Count IC50
Protocol: as §5

[8] = system: CRO-AP2; assay: OncoPanel cell proliferation assay, CRO-AP2; type: cell-based, human; settings: for GI50: read-out: Cell Count GI50
Protocol: as §1, §2, §3, §4

[9] = system: Hs 852.T; assay: OncoPanel cell proliferation assay, Hs 852.T; type: cell-based, human; settings: for GI50: read-out: Cell Count GI50
Protocol: as §1, §2, §3, §4

[10] = system: SNU-5; assay: OncoPanel cell proliferation assay, SNU-5; type: cell-based, human; settings: for EC50: read-out: Cell Count EC50; for GI50: read-out: Cell Count GI50
Protocol: as §1, with “Cells” for “Cells were grown in RPMI 1640, 10% FBS, 2 mM L-alanyl-L-glutamine, 1 mM Na pyruvate, or a special medium. Cells”
as §2, §3
GI50 is the concentration needed to reduce the observed growth by half (midway between the curve maximum and the time zero value). […] In rare instances, values <0 or >10 may be observed. […] Curve-fitting, calculations, and report generation was performed using a custom data reduction engine and MathIQ based software (AIM).

[11] = system: A431; assay: OncoPanel cell proliferation assay, A431; type: cell-based, human; settings: for GI50: A-431, read-out: Cell Count GI50; for IC50: A-431, read-out: Cell Count IC50
Protocol: as §1, §2, §3, §4

[12] = system: T24; assay: OncoPanel cell proliferation assay, T24; type: cell-based, human; settings: for GI50: T-24, read-out: Cell Count GI50
Protocol: as §1, §2, §3, §4

[13] = Homo sapiens, read-out: Cell Count IC50
[14] = Homo sapiens, read-out: Cell Count EC50

EC50 ([2]; Homo sapiens): > 1000 nM
GI50 ([2]; Homo sapiens): > 1000 nM
IC50 [2, 13]: > 1000 nM
EC50 ([4]; Homo sapiens): 0.293 nM
GI50 ([4]; Homo sapiens): 0.361 nM
IC50 ([4]; Homo sapiens, SK-NEP-1, read-out: Cell Count IC50): 1.47 nM
EC50 ([6]; Homo sapiens): 0.0136 nM
GI50 ([6]; Homo sapiens): 0.0539 nM
IC50 [6, 13]: > 1000 nM
EC50 ([10]; Homo sapiens): 0.885 nM
GI50 ([10]; Homo sapiens): 24 nM
IC50 [10, 13]: > 1000 nM
EC50 ([11]; Homo sapiens, A-431, read-out: Cell Count EC50): > 1000 nM
GI50 ([11]; Homo sapiens): > 1000 nM
IC50 ([11]; Homo sapiens): > 1000 nM
EC50 ([12]; Homo sapiens, T-24, read-out: Cell Count EC50): 0.0783 nM
GI50 ([12]; Homo sapiens): 0.474 nM
IC50 ([12]; Homo sapiens, T-24, read-out: Cell Count IC50): 2.1 nM
Structure (SMILES): CO[C@H]1C[C@@H]2CC[C@@H](C)[C@@](O)(O2)C(=O)C(=O)N2CCCC[C@H]2C(=O)O[C@H]([C@H](C)C[C@@H]2CC[C@@H](O)[C@H](OC)C2)CC(=O)[C@H](C)/C=C(\C)[C@@H](O)[C@@H](OC)C(=O)[C@H](C)C[C@H](C)/C=C/C=C/C=C/1C [Rapamycin, reference compound]
Cell Count Activity Area [1]: 4.07
EC50 ([1]; Homo sapiens): 0.194 nM
IC50 ([1]; Homo sapiens): 1.19 nM
Cell Count Activity Area [2]: 1.99
Cell Count Activity Area [3]: 0.55
EC50 [3, 14]: > 1000 nM
GI50 ([3]; Homo sapiens): > 1000 nM
IC50 ([3]; Homo sapiens): > 1000 nM
Cell Count Activity Area [4]: 4.22
EC50 ([5]; Homo sapiens, U138-MG): 0.0363 nM
GI50 ([5]; Homo sapiens, U138-MG): 0.436 nM
IC50 ([5]; Homo sapiens, U138-MG, read-out: Cell Count IC50): > 1000 nM
Cell Count Activity Area [5]: 3.14
Cell Count Activity Area [6]: 4.77
Cell Count Activity Area [7]: 4.13
EC50 ([7]; Homo sapiens, CHP-212, read-out: Cell Count EC50): 0.0376 nM
GI50 ([7]; Homo sapiens): 0.0707 nM
IC50 ([7]; Homo sapiens): > 1000 nM
Cell Count Activity Area [8]: 6.22
EC50 [8, 14]: 0.119 nM
GI50 ([8]; Homo sapiens): 0.155 nM
IC50 [8, 13]: 0.187 nM
Cell Count Activity Area [9]: 1.43
EC50 [9, 14]: > 1000 nM
GI50 ([9]; Homo sapiens): > 1000 nM
IC50 [9, 13]: > 1000 nM
Cell Count Activity Area [11]: 0.28
Cell Count Activity Area [12]: 4.39

Structure (SMILES): CN[C@@H]1C[C@H]2O[C@@](C)([C@@H]1OC)n1c3ccccc3c3c4c(c5c6ccccc6n2c5c31)C(=O)NC4 [Staurosporine, reference compound]
Cell Count Activity Area [1]: 2.99
EC50 ([1]; Homo sapiens): 20.2 nM
GI50 ([1]; Homo sapiens, CAMA-1, read-out: Cell Count GI50): 12 nM
IC50 ([1]; Homo sapiens): 99 nM
Cell Count Activity Area [2]: 3.80
EC50 ([2]; Homo sapiens): 15.8 nM
GI50 ([2]; Homo sapiens): 4.97 nM
Cell Count Activity Area [3]: 4.06
GI50 ([3]; Homo sapiens): 0.898 nM
IC50 ([3]; Homo sapiens): 7.04 nM
EC50 ([4]; Homo sapiens): 48.2 nM
GI50 ([4]; Homo sapiens): 36.5 nM
Cell Count Activity Area [4]: 2.78
EC50 ([5]; Homo sapiens, U138-MG): 0.857 nM
GI50 ([5]; Homo sapiens, U138-MG): 1.05 nM
Cell Count Activity Area [5]: 3.72
Cell Count Activity Area [6]: 6.09
EC50 ([6]; Homo sapiens): 0.52 nM
GI50 ([6]; Homo sapiens): 0.506 nM
Cell Count Activity Area [7]: 4.80
GI50 ([7]; Homo sapiens): 2.59 nM
IC50 ([7]; Homo sapiens): 4.78 nM
Cell Count Activity Area [8]: 3.99
GI50 ([8]; Homo sapiens): 13.2 nM
Cell Count Activity Area [9]: 3.16
GI50 ([9]; Homo sapiens): 1.35 nM
Cell Count Activity Area [10]: 2.58
EC50 ([10]; Homo sapiens): 6.44 nM
GI50 ([10]; Homo sapiens): 10.3 nM
Cell Count Activity Area [11]: 5.64
GI50 ([11]; Homo sapiens): 1.03 nM
IC50 ([11]; Homo sapiens): 1.19 nM
Cell Count Activity Area [12]: 5.96
GI50 ([12]; Homo sapiens): 0.829 nM

Reference: US20200131196A1 (Mount Tam Therapeutics, Inc., priority 2017, published 2020)
